From PubChem BioAssay AID2060602 (Molecular Pharmacology Branch, DTP, NCI, 2025)
Values belong to the molecule of their own block, whether it stands above or below them.

Test system: 648629-189-R-J1-PDC complex spheroids viability
Experiment: Anticancer human tumor 648629-189-R-J1-PDC patient-derived bladder carcinoma cell line growth inhibition [CLK]
Conditions: for IC50: curve of first compound; for viability, T/C: stronger effect = lower value
In short: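 Multi-cell-type spheroids combined patient-derived tumor cells with HUVEC endothelial cells and human mesenchymal stem cells. Paired agents were dosed in half-log steps down from about clinical Cmax, or from 10 microM where Cmax was unknown.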

[1] = second compound 0.0316 µM, first compound 0.00949 µM
[2] = second compound 0.0316 µM, first compound 0.03 µM
[3] = second compound 0.0316 µM, first compound 0.0949 µM
[4] = second compound 0.0316 µM, first compound 0.3 µM
[5] = second compound 0.1 µM, first compound 0.00949 µM
[6] = second compound 0.1 µM, first compound 0.03 µM
[7] = second compound 0.1 µM, first compound 0.0949 µM
[8] = second compound 0.1 µM, first compound 0.3 µM
[9] = second compound 0.316 µM, first compound 0.00949 µM
[10] = second compound 0.316 µM, first compound 0.03 µM
[11] = second compound 0.316 µM, first compound 0.0949 µM
[12] = second compound 0.316 µM, first compound 0.3 µM
[13] = second compound 1 µM, first compound 0.00949 µM
[14] = second compound 1 µM, first compound 0.03 µM
[15] = second compound 1 µM, first compound 0.0949 µM
[16] = second compound 1 µM, first compound 0.3 µM
[17] = second compound 3.16 µM, first compound 0.00949 µM
[18] = second compound 3.16 µM, first compound 0.03 µM
[19] = second compound 3.16 µM, first compound 0.0949 µM
[20] = second compound 3.16 µM, first compound 0.3 µM
[21] = second compound 10 µM, first compound 0.00949 µM
[22] = second compound 10 µM, first compound 0.03 µM
[23] = second compound 10 µM, first compound 0.0949 µM
[24] = second compound 10 µM, first compound 0.3 µM
[25] = second compound 0.0316 µM, first compound 0.0316 µM
[26] = second compound 0.0316 µM, first compound 0.1 µM
[27] = second compound 0.0316 µM, first compound 0.316 µM
[28] = second compound 0.0316 µM, first compound 1 µM
[29] = second compound 0.0316 µM, first compound 3.16 µM
[30] = second compound 0.0316 µM, first compound 10 µM
[31] = second compound 0.1 µM, first compound 0.0316 µM
[32] = second compound 0.1 µM, first compound 0.1 µM
[33] = second compound 0.1 µM, first compound 0.316 µM
[34] = second compound 0.1 µM, first compound 1 µM
[35] = second compound 0.1 µM, first compound 3.16 µM
[36] = second compound 0.1 µM, first compound 10 µM
[37] = second compound 0.316 µM, first compound 0.0316 µM
[38] = second compound 0.316 µM, first compound 0.1 µM
[39] = second compound 0.316 µM, first compound 0.316 µM
[40] = second compound 0.316 µM, first compound 1 µM
[41] = second compound 0.316 µM, first compound 3.16 µM
[42] = second compound 0.316 µM, first compound 10 µM
[43] = second compound 1 µM, first compound 0.0316 µM
[44] = second compound 1 µM, first compound 0.1 µM
[45] = second compound 1 µM, first compound 0.316 µM
[46] = second compound 1 µM, first compound 1 µM
[47] = second compound 1 µM, first compound 3.16 µM
[48] = second compound 1 µM, first compound 10 µM
[49] = second compound 3.16 µM, first compound 0.0316 µM
[50] = second compound 3.16 µM, first compound 0.1 µM
[51] = second compound 3.16 µM, first compound 0.316 µM
[52] = second compound 3.16 µM, first compound 1 µM
[53] = second compound 3.16 µM, first compound 3.16 µM
[54] = second compound 3.16 µM, first compound 10 µM
[55] = second compound 10 µM, first compound 0.0316 µM
[56] = second compound 10 µM, first compound 0.1 µM
[57] = second compound 10 µM, first compound 0.316 µM
[58] = second compound 10 µM, first compound 1 µM
[59] = second compound 10 µM, first compound 3.16 µM
[60] = second compound 10 µM, first compound 10 µM
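For viability, T/C in this document: drug exposure lasted seven days before viability readout; 100% = DMSO vehicle control wells.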

IC50 (second compound 0.0316 µM): > 0.3 µM | IC50 (second compound 0.1 µM): 0.132 µM | IC50 (second compound 0.316 µM): < 0.000949 µM | IC50 (second compound 1 µM): < 0.000949 µM | IC50 (second compound 3.16 µM): < 0.000949 µM | IC50 (second compound 10 µM): < 0.000949 µM
SMILES: C=CC(=O)Nc1cc(Nc2nccc(-c3cn(C)c4ccccc34)n2)c(OC)cc1N(C)CCN(C)C + CNC(=O)c1ccc(Nc2nc(OC3CCCC3)c3c(-c4ccc5nc(C)oc5c4)c[nH]c3n2)c(OC)c1
viability, T/C (second compound 0.0316 µM, first compound 0.000949 µM): 92.6% | viability, T/C (second compound 0.0316 µM, first compound 0.003 µM): 103% | viability, T/C [1]: 102% | viability, T/C [2]: 97.1% | viability, T/C [3]: 100% | viability, T/C [4]: 95.4% | viability, T/C (second compound 0.1 µM, first compound 0.000949 µM): 83.9% | viability, T/C (second compound 0.1 µM, first compound 0.003 µM): 73.5% | viability, T/C [5]: 69.3% | viability, T/C [6]: 66.2% | viability, T/C [7]: 51% | viability, T/C [8]: 42.6% | viability, T/C (second compound 0.316 µM, first compound 0.000949 µM): 27.9% | viability, T/C (second compound 0.316 µM, first compound 0.003 µM): 27.3% | viability, T/C [9]: 21.8% | viability, T/C [10]: 19% | viability, T/C [11]: 22.1% | viability, T/C [12]: 15.5% | viability, T/C (second compound 1 µM, first compound 0.000949 µM): 21.3% | viability, T/C (second compound 1 µM, first compound 0.003 µM): 19.4% | viability, T/C [13]: 23.2% | viability, T/C [14]: 16.1% | viability, T/C [15]: 16.5% | viability, T/C [16]: 13.2% | viability, T/C (second compound 3.16 µM, first compound 0.000949 µM): 18.7% | viability, T/C (second compound 3.16 µM, first compound 0.003 µM): 19.8% | viability, T/C [17]: 16.6% | viability, T/C [18]: 16.1% | viability, T/C [19]: 16.3% | viability, T/C [20]: 14.8% | viability, T/C (second compound 10 µM, first compound 0.000949 µM): 18.5% | viability, T/C (second compound 10 µM, first compound 0.003 µM): 22.1% | viability, T/C [21]: 22.6% | viability, T/C [22]: 17.6% | viability, T/C [23]: 17.9% | viability, T/C [24]: 13.8%

IC50 (second compound 0.0316 µM): > 10 µM | IC50 (second compound 0.1 µM): > 10 µM | IC50 (second compound 0.316 µM): < 0.0316 µM | IC50 (second compound 1 µM): < 0.0316 µM | IC50 (second compound 3.16 µM): < 0.0316 µM | IC50 (second compound 10 µM): < 0.0316 µM
SMILES: CC1(C)CCC(CN2CCN(c3ccc(C(=O)NS(=O)(=O)c4ccc(NCC5CCOCC5)c([N+](=O)[O-])c4)c(Oc4cnc5[nH]ccc5c4)c3)CC2)=C(c2ccc(Cl)cc2)C1 + CNC(=O)c1ccc(Nc2nc(OC3CCCC3)c3c(-c4ccc5nc(C)oc5c4)c[nH]c3n2)c(OC)c1
viability, T/C [25]: 100% | viability, T/C [26]: 114% | viability, T/C [27]: 108% | viability, T/C [28]: 106% | viability, T/C [29]: 85.3% | viability, T/C [30]: 103% | viability, T/C [31]: 86.5% | viability, T/C [32]: 94% | viability, T/C [33]: 93.4% | viability, T/C [34]: 79.2% | viability, T/C [35]: 71% | viability, T/C [36]: 100% | viability, T/C [37]: 26.3% | viability, T/C [38]: 30.1% | viability, T/C [39]: 23.4% | viability, T/C [40]: 25.6% | viability, T/C [41]: 29.4% | viability, T/C [42]: 19.9% | viability, T/C [43]: 20.7% | viability, T/C [44]: 24.1% | viability, T/C [45]: 20.2% | viability, T/C [46]: 23.4% | viability, T/C [47]: 26.5% | viability, T/C [48]: 21.3% | viability, T/C [49]: 23.1% | viability, T/C [50]: 23.3% | viability, T/C [51]: 23.9% | viability, T/C [52]: 20.2% | viability, T/C [53]: 21.6% | viability, T/C [54]: 17.3% | viability, T/C [55]: 20.9% | viability, T/C [56]: 20.7% | viability, T/C [57]: 19.9% | viability, T/C [58]: 22% | viability, T/C [59]: 23.6% | viability, T/C [60]: 20.4%

IC50 (second compound 0.0316 µM): 0.0522 µM | IC50 (second compound 0.1 µM): 0.0445 µM | IC50 (second compound 0.316 µM): < 0.00949 µM | IC50 (second compound 1 µM): < 0.00949 µM | IC50 (second compound 3.16 µM): < 0.00949 µM | IC50 (second compound 10 µM): < 0.00949 µM
SMILES: NC(=O)C(=Cn1cnc(-c2cc(C(F)(F)F)cc(C(F)(F)F)c2)n1)c1cncnc1 + CNC(=O)c1ccc(Nc2nc(OC3CCCC3)c3c(-c4ccc5nc(C)oc5c4)c[nH]c3n2)c(OC)c1
viability, T/C [1]: 99% | viability, T/C [2]: 83.4% | viability, T/C [3]: 13.9% | viability, T/C [4]: 5.54% | viability, T/C (second compound 0.0316 µM, first compound 0.949 µM): 2.71% | viability, T/C (second compound 0.0316 µM, first compound 3 µM): 2.7% | viability, T/C [5]: 94.1% | viability, T/C [6]: 68.2% | viability, T/C [7]: 14.8% | viability, T/C [8]: 4.73% | viability, T/C (second compound 0.1 µM, first compound 0.949 µM): 2.15% | viability, T/C (second compound 0.1 µM, first compound 3 µM): 2.48% | viability, T/C [9]: 22.4% | viability, T/C [10]: 17.4% | viability, T/C [11]: 7.71% | viability, T/C [12]: 2.5% | viability, T/C (second compound 0.316 µM, first compound 0.949 µM): 1.35% | viability, T/C (second compound 0.316 µM, first compound 3 µM): 2.05% | viability, T/C [13]: 18.1% | viability, T/C [14]: 11.5% | viability, T/C [15]: 4.85% | viability, T/C [16]: 1.29% | viability, T/C (second compound 1 µM, first compound 0.949 µM): 0.91% | viability, T/C (second compound 1 µM, first compound 3 µM): 0.42% | viability, T/C [17]: 14.7% | viability, T/C [18]: 11.7% | viability, T/C [19]: 5.56% | viability, T/C [20]: 1.15% | viability, T/C (second compound 3.16 µM, first compound 0.949 µM): 1.87% | viability, T/C (second compound 3.16 µM, first compound 3 µM): 1.75% | viability, T/C [21]: 15.4% | viability, T/C [22]: 8.85% | viability, T/C [23]: 5.59% | viability, T/C [24]: 1.56% | viability, T/C (second compound 10 µM, first compound 0.949 µM): 1.79% | viability, T/C (second compound 10 µM, first compound 3 µM): 0.33%

IC50 (second compound 0.0316 µM): 1.59 µM | IC50 (second compound 0.1 µM): 1.56 µM | IC50 (second compound 0.316 µM): < 0.0316 µM | IC50 (second compound 1 µM): < 0.0316 µM | IC50 (second compound 3.16 µM): < 0.0316 µM | IC50 (second compound 10 µM): < 0.0316 µM
SMILES: Nc1ccccc1NC(=O)c1ccc(CNC(=O)OCc2cccnc2)cc1 + CNC(=O)c1ccc(Nc2nc(OC3CCCC3)c3c(-c4ccc5nc(C)oc5c4)c[nH]c3n2)c(OC)c1
viability, T/C [25]: 104% | viability, T/C [26]: 93.5% | viability, T/C [27]: 96.7% | viability, T/C [28]: 63.9% | viability, T/C [29]: 27.1% | viability, T/C [30]: 0.72% | viability, T/C [31]: 86.6% | viability, T/C [32]: 90.8% | viability, T/C [33]: 82.4% | viability, T/C [34]: 65.1% | viability, T/C [35]: 26.2% | viability, T/C [36]: 0.23% | viability, T/C [37]: 30.3% | viability, T/C [38]: 22.9% | viability, T/C [39]: 27.1% | viability, T/C [40]: 27.5% | viability, T/C [41]: 17.8% | viability, T/C [42]: 0.7% | viability, T/C [43]: 17.4% | viability, T/C [44]: 19.8% | viability, T/C [45]: 20.5% | viability, T/C [46]: 18.4% | viability, T/C [47]: 12.6% | viability, T/C [48]: 0.5% | viability, T/C [49]: 18.9% | viability, T/C [50]: 18.3% | viability, T/C [51]: 19.3% | viability, T/C [52]: 18.5% | viability, T/C [53]: 16.4% | viability, T/C [54]: 0.52% | viability, T/C [55]: 21.7% | viability, T/C [56]: 16.4% | viability, T/C [57]: 19.5% | viability, T/C [58]: 23.9% | viability, T/C [59]: 15.6% | viability, T/C [60]: 1.56%
